From patent US7557112B2, “Aromatic-ring-fused pyrimidine derivative” (Astellas Pharma Inc., priority 2004, dated 2009)

What was measured:
ICR mice = assay: Oral glucose tolerance test on normal mouse; assay type: in vivo; details: at 30 minutes after glucose loading, relative to control group
Description: (2) Oral Glucose Tolerance Test on Normal Mouse
In this assay, preventive activities of test compounds against hyperglycemia following glucose loading were examined using normal mice and nateglinide, a commercially available oral anti-hyperglycemic agent, as a reference compound. The assay procedure is given below.
ICR mice (male, 6 weeks old) that had been preliminary bred for one week were fasted for 18 to 20 hours to use as test animals. Each test compound was dissolved in 0.5% methylcellulose solution and orally administered at 3 mg/kg (10 mg/kg for nateglinide) before glucose loading. Timing to administer the test compound was selected to be optimal for each test compound, which was 10 minutes before glucose loading for the compounds of the present invention or 30 minutes before glucose loading for nateglinide, which was a reference compound. The hypoglycemic rate (%) at 30 minutes after glucose loading was measured relative to the control group.

MIN6B1 cell = assay: Assay for promoting activity on insulin secretion; assay type: cell-based, mouse; details: 10 μM test compound, KRB-HEPES with 16.8 mM glucose, 37° C., 22 minutes; relative to DMSO = 100%
Description: (1) Assay for Promoting Activity on Insulin Secretion
In this assay, promoting activities on insulin secretion of the test compounds were studied using MIN6B1 cell, which was a strain of mouse pancreatic β-cells, and glibenclamide, which was a commercially available insulin secretagogue, as a reference compound. The assay procedure is given below.
MIN6B1 cells were seeded on a 48-well plate at a concentration of 1×10^5 cells/well (0.25 ml) (The medium was prepared by adding FCS (fetal calf serum) to DMEM (Dulbecco's Modified Eagle Medium) containing 25 mM glucose such that the FCS concentration became 10%). After two days, the medium was suctioned by an aspirator, each well washed four times with 0.2 ml of KRE-HEPES buffer [Kregs-Ringer-bicarbonate-N-2-hydroxyethylpiperazine-N′-2-ethanesulfonic acid; 130 mM NaCl, 4.7 mM KCl, 1.2 mM KH2PO4, 1.2 mM MgCl2.6H2O, 0.25 mM CaCl2.2H2O, 2.5 mM NaHCO3, 0.5% BSA, and 10 mM N-2-hydroxyethylpiperazine-N′-2-ethanesulfonic acid (pH 7.4)] containing 2.8 mM glucose warmed to 37° C., 0.2 ml of said buffer was again added, and the cells were incubated at 37° C. for 30 to 60 minutes. […] The samples were pipetted and diluted by 25 to 51 times, and the insulin concentrations were analyzed using an insulin assay kit (Rat Insulin [^125I] Biotrak Assay System with Magnetic Separation; Amersham BioScience K.K.). […]

In the case of `Fc1cc(-c2nc(N3CCSC3)c3sccc3n2)c(F)cc1Cl` [Example 99], the “Hypoglycemic rate, %” value (ICR mice; 3 mg/kg orally, 10 minutes before glucose loading) is reported as 36%.

With `COc1ccc(Cl)cc1C(=O)NCCc1ccc(S(=O)(=O)NC(=O)NC2CCCCC2)cc1` [Glibenclamide, glibenclamide] the “Promotion activity on insulin secretion, %” value (MIN6B1 cell) was 122%.

For `CC(C)[C@H]1CC[C@H](C(=O)N[C@H](Cc2ccccc2)C(=O)O)CC1` [Nateglinide, nateglinide], the “Hypoglycemic rate, %” value (ICR mice; 10 mg/kg orally, 30 minutes before glucose loading) was 26%.
